Target: T1, recombinant human SK (Homo sapiens, UniProt Q9NYA1)
T1 construct: GST (glutathione-S-transferase) (N); made in house; host or cells: bacteria (pGEX bacterial expression vector)
Assay: Recombinant human SK activity assay ([3H]sphingosine to [3H]S1P)
Type: biochemical
Settings: Human SK incubated with 6 μg/mL of compound; percentage of SK activity inhibited
Protocol: SK activity is measured by incubation of the recombinant SK with [^3H]sphingosine and 1 mM ATP under defined conditions, followed by extraction of the assay mixture with chloroform:methanol under basic conditions. […] Radioactivity in aliquots of the aqueous phase is then quantified as a measure of [^3H]S1P formation.
Human SK was incubated with 6 μg/mL of the indicated compounds, and then assayed for activity as described above. Values in the column labeled “Recombinant SK (% inhibition)” represent the percentage of SK activity that was inhibited. MDA-MB-231 cells were incubated with 20 μg/mL of the indicated compounds and then assayed for endogenous SK activity as indicated above. Values in the column labeled “Cellular S1P (% inhibition)” represent the percentage of S1P production that was inhibited. Additionally, MDA-MB-231 cells were treated with varying concentration of certain compounds and the amount of S1P produced by the cells was determined. Values in the column labeled “Cellular S1P IC50 (μM)” represent the concentration of compound required to inhibit the production of S1P by 50%. ND=not determined.

T1 sequence (Q9NYA1 whole entry): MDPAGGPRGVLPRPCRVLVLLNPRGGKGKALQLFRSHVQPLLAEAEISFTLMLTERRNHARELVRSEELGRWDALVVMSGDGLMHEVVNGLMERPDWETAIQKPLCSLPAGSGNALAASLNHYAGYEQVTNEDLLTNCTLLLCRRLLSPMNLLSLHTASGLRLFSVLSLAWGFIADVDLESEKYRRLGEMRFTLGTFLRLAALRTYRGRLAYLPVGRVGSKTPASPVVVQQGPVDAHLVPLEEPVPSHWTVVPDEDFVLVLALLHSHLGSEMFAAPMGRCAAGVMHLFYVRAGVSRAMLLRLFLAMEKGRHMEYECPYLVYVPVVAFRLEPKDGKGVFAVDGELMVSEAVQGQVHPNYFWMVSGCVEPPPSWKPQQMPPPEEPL

inhibition at 6 µg/mL [%] | Structure (SMILES)
64 | O=C(NCCc1ccc2c(c1)OCO2)C12CC3CC(C1)CC(c1ccc(Cl)cc1)(C3)C2 [A45, 3-(4-Chloro-phenyl)-adamantane-1-carboxylic acid (2-benzo[1,3]dioxol-5-yl-ethyl)-amide]
26 | O=C(NCCc1ccc(Oc2ccccc2)cc1)C12CC3CC(C1)CC(c1ccc(Cl)cc1)(C3)C2 [A47, 3-(4-Chloro-phenyl)-adamantane-1-carboxylic acid [2-(4-phenoxy-phenyl)-ethyl]-amide]
52 | CC(C)(C)NCCCNC(=O)C12CC3CC(C1)CC(c1ccc(Cl)cc1)(C3)C2 [A53, 3-(4-Chloro-phenyl)-adamantane-1-carboxylic acid (3-tert-butylamino-propyl)-amide]
8 | O=C1CCCN1CCCNC(=O)C12CC3CC(C1)CC(c1ccc(Cl)cc1)(C3)C2 [A55, 3-(4-Chloro-phenyl)-adamantane-1-carboxylic acid [3-(2-oxo-pyrrolidin-1-yl)-propyl]-amide]
3 | O=C(NCCCn1ccnc1)C12CC3CC(C1)CC(c1ccc(Cl)cc1)(C3)C2 [A65, 3-(4-Chloro-phenyl)-adamantane-1-carboxylic acid (3-imidazol-1-yl-propyl)-amide]
27 | FC(F)(F)c1ccc(CNCC23CC4CC(C2)CC(c2ccc(Cl)cc2)(C4)C3)cc1 [A77, [3-(4-Chloro-phenyl)-adamantan-1-ylmethyl]-(4-trifluoromethyl-benzyl)-amine]
43 | Fc1cc(C(F)(F)F)ccc1CNCC12CC3CC(C1)CC(c1ccc(Cl)cc1)(C3)C2 [A78, [3-(4-Chloro-phenyl)-adamantan-1-ylmethyl]-(2-fluoro-4-trifluoromethyl-benzyl)-amine]

The remaining lines, values behind:

Structure (SMILES) | inhibition at 6 µg/mL [%]
O=C(NCc1ccc(O)c(O)c1)C12CC3CC(C1)CC(c1ccc(Cl)cc1)(C3)C2 [A36, 3-(4-Chloro-phenyl)-adamantane-1-carboxylic acid 3,4-dihydroxy-benzylamide] | 37
COc1ccc(CCNC(=O)C23CC4CC(C2)CC(c2ccc(Cl)cc2)(C4)C3)cc1Br [A42, 3-(4-Chloro-phenyl)-adamantane-1-carboxylic acid [2-(3-bromo-4-methoxy-phenyl)-ethyl]-amide] | 5
O=C(NCCc1cccc(Oc2ccccc2)c1)C12CC3CC(C1)CC(c1ccc(Cl)cc1)(C3)C2 [A46, 3-(4-Chloro-phenyl)-adamantane-1-carboxylic acid [2-(3-phenoxy-phenyl)-ethyl]-amide] | 4
O=C(NCc1ccc(-c2ccccc2)cc1)C12CC3CC(C1)CC(c1ccc(Cl)cc1)(C3)C2 [A49, 3-(4-Chloro-phenyl)-adamantane-1-carboxylic acid (biphenyl-4-ylmethyl)-amide] | 33
O=C(NCCCN1CCCC1)C12CC3CC(C1)CC(c1ccc(Cl)cc1)(C3)C2 [A54, 3-(4-Chloro-phenyl)-adamantane-1-carboxylic acid (3-pyrrolidin-1-yl-propyl)-amide] | 95
O=C(NCCN1CCNCC1)C12CC3CC(C1)CC(c1ccc(Cl)cc1)(C3)C2 [A59, 3-(4-Chloro-phenyl)-adamantane-1-carboxylic acid (2-piperazin-1-yl-ethyl)-amide] | 0
O=C(Nc1nnn[nH]1)C12CC3CC(C1)CC(c1ccc(Cl)cc1)(C3)C2 [A67, 3-(4-Chloro-phenyl)-adamantane-1-carboxylic acid (1H-tetrazol-5-yl)-amide] | 10
O=C(Nc1ncnc2[nH]cnc12)C12CC3CC(C1)CC(c1ccc(Cl)cc1)(C3)C2 [A73, 3-(4-Chloro-phenyl)-adamantane-1-carboxylic acid (9H-purin-6-yl)-amide] | 53
Fc1ccc(CNCC23CC4CC(C2)CC(c2ccc(Cl)cc2)(C4)C3)cc1C(F)(F)F [A79, [3-(4-Chloro-phenyl)-adamantan-1-ylmethyl]-(4-fluoro-3-trifluoromethyl-benzyl)-amine] | 19
